According to publication PMC10949195, “Exponential Combination of a and e/g Intracellular Peptide Libraries Identifies a Selective ATF3 Inhibitor” (ACS Chemical Biology, 2024):

How the values were obtained:
Serum stability = format: in vitro ADME; details: human serum (Merck), 75 uL of 600 uM stock in 1425 uL serum, 37 °C, 3-day time course; LC-MS; averages of three experimental repeats
Experimental: TableS1: Shown are peptide permeability assay on ATF3W-aeg. […]
peptide holding on the membrane.
Peptide permeability assay: To evaluate the peptide permeability, the BD™ pre-coated PAMPA plate system was employed. The 300uL of 200uM peptide in PBS buffer were added in the well of the receiver plate, and slowly placed the filter plate with the 200uL PBS buffer per well on the receiver plate. The peptide concentrations in both plates were determined by UV spectroscopy after the assembly plate system were incubated at room temperature for 5 hours, and the peptide permeability and mass retention were calculated by using the PAMPA plate system formula which recommended in the manufacture manual.
Permeability (in unit of cm/s):
Mass retention: 1 - [CD(t)*VD + CA(t)*VA ]/( C0 * VD)
C0 = initial compound concentration in donor well (mM)
CD(t) = compound concentration in donor well at time t (mM)
CA(t) = compound concentration in acceptor well at time t (mM)
VD = donor well volume = 0.3 mL
VA = acceptor well volume = 0.2 mL […]
Serum stability: The quantity of peptide detected by LC-MS is plotted relative to the starting point […]
Fig S5: Shown are serum stability of ATF3W-aeg. The quantity of peptide detected by LC-MS is plotted […]
The supernatant was analysed by LC-MS, and the peptide was quantified as the sum of the peaks with the two largest intensities1.

[1] = CD spectra of peptide in isolation (helicity, 222/208 ratio); format: physicochemical; details: 20 °C, 150 μM total peptide, pH 7.0
Experimental: (§1) ATF3, ATF3W_a, and ATF3W_eg and combined hit sequence ATF3W_aeg were synthesized using solid phase peptide synthesis, purified by RP-HPLC, and verified for correct mass using ESI-MS (Figure S3), after which circular dichroism (CD) was used to characterize both ATF3 and antagonist peptides for helicity and interactions as homodimers, as well as heterodimers with the ATF3 target. Global secondary analysis of both homodimeric and heterodimeric systems was carried out at a total peptide concentration of 150 μM to keep equimolar concentrations of each component helix. The 222/208 ratio was used to provide evidence on whether the helices were likely to be monomeric or adopt quaternary structure.[13] […] Furthermore, incubation of ATF3 with ATF3W_aeg elicited a significant conformational change in the sample relative to the average of the component peptides (Figure 6d black line vs red hash), providing compelling evidence for an interaction.[14] In addition, the component PCA hits were examined using CD.
(§2) Figure 6 CD spectra data indicates a ATF3-ATF3W_aeg interaction. […] Spectra were next measured at 20 and 5 °C and again post-thermal denaturation (PM 20 °C to establish reversible that unfolding is fully reversible) at a total peptide concentration of 150 μM and presented as mean residue ellipticity (MRE). […]

ATF3 = molecular target: T1, ATF3 (Homo sapiens, UniProt P18847); assay: CD spectra of ATF3-ATF3W_aeg complex; format: binding; details: 1:1 stoichiometry with ATF3, 150 μM total peptide, pH 7.0
T1 construct: We focus on the selective targeting of the ATF3 leucine zipper dimerization domain using intracellular peptide library screening; made in house; host or cells: chemical solid-phase peptide synthesis (no expression host)
T1 sequence (P18847 110-143): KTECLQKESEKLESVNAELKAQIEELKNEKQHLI
Experimental: as §1, §2

Ac-ELAALEQKAYALKQENAALEKEVAALEQKIAALK-NH2 (N-terminus and C-terminus assumed) [ATF3W_aeg]
serum stability, peptide quantity relative to starting point (Serum stability): completely degraded | fractional helicity (fH), peptide in isolation ([1]; 10 mM potassium phosphate, 100 mM potassium fluoride): ~38% | 222/208 ratio, peptide in isolation [1]: 0.76 | 222/208 ratio of ATF3-ATF3W_aeg complex (ATF3): 0.94 | fractional helicity (fH) of ATF3-ATF3W_aeg complex (ATF3): ~68%
